Measured values from US20240083853A1, “HSD17B13 INHIBITORS AND USES THEREOF” (FL2022-001, Inc., priority 2020, published 2024).

The molecules below were run against T1, Recombinant human HSD17B13 enzyme (Homo sapiens, UniProt Q7Z5P4) (assay: HSD17b13 NAD(P)H-Glo biochemical assay). Conditions: 50 uM estradiol, 1 mM NAD+, NAD(P)H-Glo luminescence; read-out: HSD17β13 IC50.
T1 sequence (Q7Z5P4 20-300): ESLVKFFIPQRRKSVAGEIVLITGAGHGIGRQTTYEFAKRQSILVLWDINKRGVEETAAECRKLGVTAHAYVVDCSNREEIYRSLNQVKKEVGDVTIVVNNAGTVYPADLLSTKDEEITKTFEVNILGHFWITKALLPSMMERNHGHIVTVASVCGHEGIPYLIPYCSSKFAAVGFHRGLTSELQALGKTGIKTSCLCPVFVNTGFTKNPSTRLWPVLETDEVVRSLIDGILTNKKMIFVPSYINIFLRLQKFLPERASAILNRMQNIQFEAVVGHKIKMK
Procedure: Example B-1: HSD17b13 NAD(P)H-Glo Biochemical Assay
Recombinant human HSD17B13 enzyme. Substrate: estradiol (Sigma β-Estradiol E8875), 100 mM in DMSO. Cofactor: NAD+ Grade I free acid (Sigma 10127965001), 20 mM in H2O. Assay buffer final concentration: 20 mM Tris pH7.4 with 0.002% Tween-20 and 0.02% BSA. Assay performed in 384 well solid bottom plate (Corning 3570). Enzymatic activity detected by NAD(P)H-Glo™ Detection System (Promega G9062).
Inhibitor compounds were serially diluted in DMSO and then further diluted in assay buffer to a 10× concentration consisting of 1% DMSO.
HSD17b13 enzyme was diluted in 1× assay buffer to the desired enzyme concentration based on the specific activity of the enzyme lot. 20 uL of diluted enzyme was added to each well along with 2.5 uL of 10× inhibitor solution. Assay plate was incubated at RT for 20 minutes, and then 2.5 uL of a 10× substrate/cofactor mix was added to each well for a final concentration of 50 uM estradiol and 1 mM NAD+. Assay plate was incubated at 37° C. for 3 hours. NAD(P)H-Glo™ Detection System reagents were prepared according to manufacturer's specifications, and 25 uL was added to each well. After incubating for 1 hour at RT, luminescence was measured.
In the case of CS(=O)(=O)N1CCN(c2cnc(-n3nnc4cc(F)c(O)c(F)c43)cn2)CC1 [Compound 26.19, 5,7-Difluoro-1-(5-(4-(methylsulfonyl)piperazin-1-yl)pyrazin-2-yl)-1H-benzo[d][1,2,3]triazol-6-ol], the IC50 is reported as 0.1 to 1 µM.
For Oc1ccc(-c2ccc(-n3ncc4ccc(O)cc43)cc2)cc1 [Compound 1, 1-(4′-Hydroxy-[1,1′-biphenyl]-4-yl)-1H-indazol-6-ol], the IC50 was 0.1 to 1 µM.
In the case of CC1(C)CCCN(c2ccc(-n3ncc4cc(F)c(O)c(F)c43)cc2)C1 [Compound 23.19, 1-(4-(3,3-Dimethylpiperidin-1-yl)phenyl)-5,7-difluoro-1H-indazol-6-ol], the IC50 is reported as < 0.1 µM.
O=S1(=O)CCC2(CC1)CN(c1ccc(-n3ncc4cc(F)c(O)c(F)c43)cc1)C2 [Compound 24.11, 2-(4-(5,7-Difluoro-6-hydroxy-1H-indazol-1-yl)phenyl)-7-thia-2-azaspiro[3.5]nonane 7,7-dioxide] was tested, and the IC50 was 0.1 to 1 µM.
Molecule CC(=O)Nc1cccc(-c2ccc(-n3ncc4cc(F)c(O)cc43)cc2)c1 [Compound 13.31, N-(4′-(5-Fluoro-6-hydroxy-1H-indazol-1-yl)-[1,1′-biphenyl]-3-yl)acetamide] has an IC50 of 1 to 30 µM.
Oc1c(F)cc2cnn(-c3ccc(N4CCC5(CC4)CNC5)cc3)c2c1F [Compound 23.28, 1-(4-(2,7-Diazaspiro[3.5]nonan-7-yl)phenyl)-5,7-difluoro-1H-indazol-6-ol] was tested, and the IC50 was 0.1 to 1 µM.
In the case of Oc1cccc(-c2ccc(-n3ncc4c(F)cc(O)cc43)cc2)c1 [Compound 2.8, 4-Fluoro-1-(3′-hydroxy-[1,1′-biphenyl]-4-yl)-1H-indazol-6-ol], the IC50 is reported as 1 to 30 µM.
With N#Cc1ccc(-c2ccc(-n3ncc4cc(F)c(O)cc43)cc2)cc1 [Compound 13.18, 4′-(5-Fluoro-6-hydroxy-1H-indazol-1-yl)-[1,1′-biphenyl]-4-carbonitrile] the IC50 was < 0.1 µM.
For CC1(C)CCN(c2ccc(-n3nnc4c(C(F)(F)F)c(F)c(O)cc43)cc2)CC1 [Compound 41.1, 1-(4-(4,4-Dimethylpiperidin-1-yl)phenyl)-5-fluoro-4-(trifluoromethyl)-1H-benzo[d][1,2,3]triazol-6-ol], the IC50 was 0.1 to 1 µM.
Oc1c(F)cc2cnn(-c3ccc(N4CCC5(CC4)COC5)cc3)c2c1F [Compound 23.25, 1-(4-(2-Oxa-7-azaspiro[3.5]nonan-7-yl)phenyl)-5,7-difluoro-1H-indazol-6-ol] was tested, and the IC50 was < 0.1 µM.
CC1(C)CCN(c2ccc(-n3ncc4c(C(F)(F)F)c(F)c(O)cc43)cc2)CC1 [Compound 25.1, 1-(4-(4,4-Dimethylpiperidin-1-yl)phenyl)-5-fluoro-4-(trifluoromethyl)-1H-indazol-6-ol] gave an IC50 of 0.1 to 1 µM.
CS(=O)(=O)N1CCC(Oc2ccc(-n3ncc4cc(F)c(O)c(F)c43)cc2)CC1 [Compound 31, 5,7-Difluoro-1-(4-((1-(methylsulfonyl)piperidin-4-yl)oxy)phenyl)-1H-indazol-6-ol] gave an IC50 of 0.1 to 1 µM.
Work on Oc1ccc(-c2ccc(-n3ncc4cc(F)c(O)cc43)cn2)cc1 [Compound 15.2, 5-Fluoro-1-(6-(4-hydroxyphenyl)pyridin-3-yl)-1H-indazol-6-ol] yielded an IC50 of 0.1 to 1 µM.
Oc1c(F)cc2nnn(-c3ncc(N4CC5(CCOCC5)C4)cn3)c2c1F [Compound 26.21, 1-(5-(7-Oxa-2-azaspiro[3.5]nonan-2-yl)pyrimidin-2-yl)-5,7-difluoro-1H-benzo[d][1,2,3]triazol-6-ol] was tested, and the IC50 was 0.1 to 1 µM.
For CC(C)C1CN(c2ccc(-n3ncc4cc(F)c(O)c(F)c43)cc2)C1 [Compound 24.3, 5,7-Difluoro-1-(4-(3-isopropylazetidin-1-yl)phenyl)-1H-indazol-6-ol], the IC50 was < 0.1 µM.
Oc1cc2c(cnn2-c2ccc(-c3ccccc3Cl)cc2)cc1F [Compound 13.6, 1-(2′-Chloro-[1,1′-biphenyl]-4-yl)-5-fluoro-1H-indazol-6-ol] gave an IC50 of 0.1 to 1 µM.
With CC1(C)CCN(c2ccc(-n3ncc4cc(F)c(O)c(F)c43)cc2)CC1 [Compound 23, 1-(4-(4,4-Dimethylpiperidin-1-yl)phenyl)-5,7-difluoro-1H-indazol-6-ol] the IC50 was < 0.1 µM.
CS(=O)(=O)C1CN(c2ccc(-n3nnc4cc(F)c(O)c(F)c43)cc2)C1 [Compound 20.14, 5,7-Difluoro-1-(4-(3-(methylsulfonyl)azetidin-1-yl)phenyl)-1H-benzo[d][1,2,3]triazol-6-ol] was tested, and the IC50 was 0.1 to 1 µM.
In the case of Oc1c(F)cc2cnn(-c3ccc(N4CCOCC4)cc3)c2c1F [Compound 23.3, 5,7-Difluoro-1-(4-morpholinophenyl)-1H-indazol-6-ol], the IC50 is reported as 0.1 to 1 µM.
Oc1c(F)cc2nnn(-c3ccc(N4CCO[C@@H](c5ccccc5)C4)cc3)c2c1F [Compound 26.26, (S)-5,7-Difluoro-1-(4-(2-phenylmorpholino)phenyl)-1H-benzo[d][1,2,3]triazol-6-ol] showed an IC50 of 0.1 to 1 µM.
With Cn1c(=O)c2cc(F)c(O)c(F)c2n1-c1ccc(N2CCC(C)(C)CC2)cc1 [Compound 37, 1-(4-(4,4-Dimethylpiperidin-1-yl)phenyl)-5,7-difluoro-6-hydroxy-2-methyl-1H-indazol-3(2H)-one] the IC50 was 0.1 to 1 µM.
In the case of CC1(C)CCN(c2ccc(-n3nnc4cc(F)c(O)c(F)c43)cn2)CC1 [Compound 26.11, 1-(6-(4,4-Dimethylpiperidin-1-yl)pyridin-3-yl)-5,7-difluoro-1H-benzo[d][1,2,3]triazol-6-ol], the IC50 is reported as < 0.1 µM.
Oc1c(F)cc2nnn(-c3cnc(N4CC5(CCOCC5)C4)nc3)c2c1F [Compound 42.1, 1-(2-(7-Oxa-2-azaspiro[3.5]nonan-2-yl)pyrimidin-5-yl)-5,7-difluoro-1H-benzo[d][1,2,3]triazol-6-ol] gave an IC50 of 1 to 30 µM.
CC1(C)CCN(c2ccc(N3C(=O)Cc4cc(F)c(O)c(F)c43)cc2)CC1 [Compound 33, 1-(4-(4,4-Dimethylpiperidin-1-yl)phenyl)-5,7-difluoro-6-hydroxyindolin-2-one] was tested, and the IC50 was 0.1 to 1 µM.
CS(=O)(=O)N1CC2(CCN(c3ccc(-n4ncc5cc(F)c(O)c(F)c54)cc3)CC2)C1 [Compound 20.21, 5,7-Difluoro-1-(4-(2-(methylsulfonyl)-2,7-diazaspiro[3.5]nonan-7-yl)phenyl)-1H-indazol-6-ol] was tested, and the IC50 was 0.1 to 1 µM.
Molecule CC1(C)CCN(c2ccc(N3C(=O)C(C)(C)c4cc(F)c(O)c(F)c43)cc2)CC1 [Compound 34, 1-(4-(4,4-Dimethylpiperidin-1-yl)phenyl)-5,7-difluoro-6-hydroxy-3,3-dimethylindolin-2-one] has an IC50 of 1 to 30 µM.
With CN1CCN(c2ccc(-n3ncc4cc(F)c(O)c(F)c43)cc2)CC1 [Compound 24.1, 5,7-Difluoro-1-(4-(4-methylpiperazin-1-yl)phenyl)-1H-indazol-6-ol] the IC50 was 0.1 to 1 µM.
CS(=O)(=O)C1CCN(c2ccc(-n3ncc4cc(F)c(O)c(F)c43)cc2)CC1 [Compound 22.3, 5,7-Difluoro-1-(4-(4-(methylsulfonyl)piperidin-1-yl)phenyl)-1H-indazol-6-ol] showed an IC50 of 0.1 to 1 µM.
For CC1(C)CCN(c2ccc(-n3nnc4c(F)c(F)c(O)cc43)cc2)CC1 [Compound 40.2, 1-(4-(4,4-Dimethylpiperidin-1-yl)phenyl)-4,5-difluoro-1H-benzo[d][1,2,3]triazol-6-ol], the IC50 was 0.1 to 1 µM.
In the case of CCC1(C)CCN(c2ccc(-n3ncc4cc(F)c(O)c(F)c43)cc2)CC1 [Compound 24.5, 1-(4-(4-Ethyl-4-methylpiperidin-1-yl)phenyl)-5,7-difluoro-1H-indazol-6-ol], the IC50 is reported as < 0.1 µM.
With [O-][S+]1CC2(CN(c3ccc(-n4ncc5cc(F)c(O)c(F)c54)cc3)C2)C1 [Compound 32.2, 6-(4-(5,7-Difluoro-6-hydroxy-1H-indazol-1-yl)phenyl)-2-thia-6-azaspiro[3.3]heptane 2-oxide] the IC50 was 0.1 to 1 µM.
Cc1cc(N2CCN(S(C)(=O)=O)CC2)ccc1-n1ncc2cc(F)c(O)c(F)c21 [Compound 20.2, 5,7-Difluoro-1-(2-methyl-4-(4-(methylsulfonyl)piperazin-1-yl)phenyl)-1H-indazol-6-ol] was tested, and the IC50 was 0.1 to 1 µM.
Molecule CS(=O)(=O)N1CCN(c2ccc(-n3ncc4cc(F)c(O)c(F)c43)cc2F)CC1 [Compound 23.7, 5,7-Difluoro-1-(3-fluoro-4-(4-(methylsulfonyl)piperazin-1-yl)phenyl)-1H-indazol-6-ol] has an IC50 of 0.1 to 1 µM.
NC(=O)c1ccc(-c2ccc(-n3ncc4cc(F)c(O)cc43)cc2)cc1 [Compound 13.36, 4′-(5-Fluoro-6-hydroxy-1H-indazol-1-yl)-[1,1′-biphenyl]-4-carboxamide] gave an IC50 of 0.1 to 1 µM.

Same assay, conditions: 3 h; at 10 uM compound; read-out: HSD17β13 % at 10 uM
For CC1(C)CCN(c2ccc(-n3cnc4cc(F)c(O)cc43)cc2)CC1 [Compound 21.10, 1-(4-(4,4-Dimethylpiperidin-1-yl)phenyl)-5-fluoro-1H-benzo[d]imidazol-6-ol], the inhibition at 10 µM was 35%.

Same assay, conditions: 3 h; at 30 uM compound; read-out: HSD17β13 % at 30 uM
Work on Oc1cc2c(cnn2-c2ccc(-c3cccnc3)cc2)cc1F [Compound 13.14, 5-Fluoro-1-(4-(pyridin-3-yl)phenyl)-1H-indazol-6-ol] yielded an inhibition at 30 µM of 40%.
